Data as given in US20210130401A1, “PEPTIDOMIMETIC INHIBITORS OF THE WDR5-MLL INTERACTION” (THE REGENTS OF THE UNIVERSITY OF MICHIGAN, priority 2017, published 2021).
Like-named read-outs stand apart in the source and are kept apart here. Starred links: 1 amine or outer side, 2 acyl side, 3 side chain; linkers in the order of their positions; H or OH if unused. Positions of bridges follow the written chain, without caps; N, C: chain ends. Non-standard residues stand in square brackets, D forms with d. Residues, ends and D or L forms follow the SMILES beside them. *: point of attachment. dαMeDab = C[C@](CCN[*:3])(N[*:1])C(=O)[*:2]; Arg(Me) = CNC(=N)NCCC[C@H](N)C(=O)O; dPhg = N[C@@H](C(=O)O)c1ccccc1; Isobutyryl = CC(C)C(=O)*; Abu = CC[C@H](N)C(=O)O

Legend:
[1] = target: T1, WDR5 (Homo sapiens, UniProt P61964); assay: fluorescence polarization (FP) based competitive binding assay to WDR5 protein
T1 construct: N-terminal His-tagged WDR5 protein (residues 24-334), named WDR5Δ23; made in house; host or cells: E. coli Rosetta 2 (DE3)
Method: The plates were incubated at room temperature on a shaker for 3h, and then the mP values were measured using the Tecan Infinite M-1000 plate reader (Tecan U.S., Research Triangle Park, N.C.).

[2] = test system: MOLM-13 leukemia cells carrying MLL-AF9 fusion; assay: cell viability assay (WST-8), MOLM-13; assay type: cell-based; conditions: Homo sapiens, MOLM-13, 96 h; 4 days treatment; read-out: Cell Growth Inhibition IC50 (μM) MOLM-13
Method: (§2) To assess cell viability, MOLM-13 leukemia cells carrying MLL-AF9 fusion, MV4;11 leukemia cells carrying MLL-AF4 fusion or HL-60 leukemia cells carrying no MLL fusion were seeded 1×10^4 cell/well in 96-well plates and treated with an inhibitor for 4 days at different concentrations, in culture media containing 0.2% DMSO as the final concentration. Cell viability was determined using the WST-8 cell proliferation assay kit (Dojindo Molecular Technologies) according to manufacturer's instructions. Three independent experiments in triplicates were performed.

[3] = test system: MV4;11 leukemia cells carrying MLL-AF4 fusion; assay: cell viability assay (WST-8), MV4;11; assay type: cell-based; conditions: Homo sapiens, MV4-11, 96 h; 4 days treatment; read-out: Cell Growth Inhibition IC50 (μM) MV-4-11
Method: as §2

[4] = test system: HL-60 leukemia cells carrying no MLL fusion; assay: cell viability assay (WST-8), HL-60; assay type: cell-based; conditions: for IC50: 4 days treatment, read-out: Cell Growth Inhibition IC50 (μM) HL-60
Method: Cell viability was determined using the WST-8 cell proliferation assay kit (Dojindo Molecular Technologies) according to manufacturer's instructions. Three independent experiments in triplicates were performed.

[5] = test system: MLL2; assay: HMT assay, SET1 family specificity; assay type: biochemical; conditions: up to 100 μM; data not shown
Method: (§1) The specificity of Cpd. No. 5 was tested against MLL and other SET1 family members (MLL2, MLL3, MLL4, SET1a and SET1b) using the previously published HMT assays (Karatas et al., J. Med. Chem. 53:5179-5185 (2010)). Cpd.

[6] = target: MLL3 (Homo sapiens, UniProt Q8NEZ4); assay: HMT assay, SET1 family specificity; assay type: biochemical; conditions: up to 100 μM; data not shown
Method: as §1

[7] = test system: MLL4; assay: HMT assay, SET1 family specificity; assay type: biochemical; conditions: up to 100 μM; data not shown
Method: as §1

[8] = target: SET1a (Homo sapiens, UniProt O15047); assay: HMT assay, SET1 family specificity; assay type: biochemical; conditions: up to 100 μM; data not shown
Method: as §1

[9] = target: SET1b (Homo sapiens, UniProt Q9UPS6); assay: HMT assay, SET1 family specificity; assay type: biochemical; conditions: up to 100 μM; data not shown
Method: as §1

[10] = stability in cell culture media; assay type: physicochemical; conditions: up to 7 days; data not shown
Method: To assess the effect of long-term treatment of compound Cpd. No. 5 on leukemia cells, MOLM-13 and MV4;11 cell lines were plated at a density of 5×10^4 cell/ml in 24-well plates (2 ml/well), and treated with the relevant concentrations. On day 4, cell viability for each treatment was measured using the WST-8 cell count kit. Then 10% of viable cells from each well were transferred to freshly prepared medium containing corresponding concentrations of compound Cpd. No. 5 and cultured for additional 3 days. On day 7, cell viability for each treatment was determined. In this experiment, 100,000 cells were seeded in each well in 24-well plates, whereas the cell growth inhibition data obtained for Cpd. No. 64 in Table 2 was obtained by seeding 10,000 cells in 96-well plates. Additionally, Cpd. No. 5 is stable in cell culture media up to 7 days (data not shown).

## CC[C@@H]1NC(=O)[C@H](CCCNC(=N)NC)NC(=O)[C@](C)(NC(=O)C(C)C)CCNC(=O)[C@@H](c2ccccc2)NC1=O [Cpd. No. 5, N-((3R,6S,9S,12R)-6-ethyl-12-methyl-9-(3-(3-methylguanidino)propyl)-2,5,8,11-tetraoxo-3-phenyl-1,4,7,10-tetraazacyclotetradecan-12-yl)isobutyramide] (Isobutyryl-[dαMeDab][Arg(Me)][Abu][dPhg]; lactam 1-C)
[1]; Table 3A, read-out: Binding Affinity to WDR5 IC50
  IC50: 2.13 nM
[1]; Table 3A, read-out: Binding Affinity to WDR5 Ki
  Ki: < 1 nM
[1]; calculated from IC50 by published equation, read-out: Binding Affinity to WDR5 Ki ± SD
  Ki: < 1 nM
[1]; read-out: Binding Affinity to WDR5 IC50 ± SD
  IC50: 0.9 ± 0.2 nM
[2]
  IC50: 0.21 µM
[3]
  IC50: 0.25 µM
[4]
  IC50: 8.56 ± 1.14 µM
[4]; Homo sapiens, HL-60, 96 h
  IC50: 8.6 µM
[4]; cell growth inhibition IC50 ratio
  selectivity for the MV4;11 and MOLM-13 cell lines harboring MLL translocations over the HL-60 cell line: > 30 fold
[5]
  inhibition of the HMT activity of MLL2: no or a minimal effect
[6]
  inhibition of the HMT activity of MLL3: no or a minimal effect
[7]
  inhibition of the HMT activity of MLL4: no or a minimal effect
[8]
  inhibition of the HMT activity of SET1a: no or a minimal effect
[9]
  inhibition of the HMT activity of SET1b: no or a minimal effect
[10]
  stability in cell culture media: stable
